ChEMBL document CHEMBL1142243, “Potent and selective alpha-ketoheterocycle-based inhibitors of the anandamide and oleamide catabolizing enzyme, fatty acid amide hydrolase” (J Med Chem, 2007)

Tests used:
[1] = target: T1, Liver carboxylesterase 1 (Homo sapiens, UniProt P23141); experiment: Inhibition of TGH
T1 sequence (P23141 whole entry): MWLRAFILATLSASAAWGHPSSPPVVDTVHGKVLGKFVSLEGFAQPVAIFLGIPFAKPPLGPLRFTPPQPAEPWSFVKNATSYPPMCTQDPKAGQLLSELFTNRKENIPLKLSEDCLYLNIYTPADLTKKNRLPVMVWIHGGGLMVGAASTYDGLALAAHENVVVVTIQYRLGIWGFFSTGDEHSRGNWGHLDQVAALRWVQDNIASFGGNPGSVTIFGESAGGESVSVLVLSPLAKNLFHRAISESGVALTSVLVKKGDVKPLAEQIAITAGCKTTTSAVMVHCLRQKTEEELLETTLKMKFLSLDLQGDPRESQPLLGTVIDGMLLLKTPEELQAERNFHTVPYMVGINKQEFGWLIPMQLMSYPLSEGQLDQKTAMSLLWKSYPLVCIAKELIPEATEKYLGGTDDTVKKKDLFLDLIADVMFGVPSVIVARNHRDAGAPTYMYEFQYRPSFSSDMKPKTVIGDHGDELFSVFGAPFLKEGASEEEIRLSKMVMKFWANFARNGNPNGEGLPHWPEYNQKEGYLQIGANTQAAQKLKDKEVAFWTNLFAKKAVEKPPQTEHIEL

[2] = target: T2, Neutral cholesterol ester hydrolase 1 (Homo sapiens, UniProt Q6PIU2); experiment: Inhibition of KIAA1363
T2 sequence (Q6PIU2 whole entry): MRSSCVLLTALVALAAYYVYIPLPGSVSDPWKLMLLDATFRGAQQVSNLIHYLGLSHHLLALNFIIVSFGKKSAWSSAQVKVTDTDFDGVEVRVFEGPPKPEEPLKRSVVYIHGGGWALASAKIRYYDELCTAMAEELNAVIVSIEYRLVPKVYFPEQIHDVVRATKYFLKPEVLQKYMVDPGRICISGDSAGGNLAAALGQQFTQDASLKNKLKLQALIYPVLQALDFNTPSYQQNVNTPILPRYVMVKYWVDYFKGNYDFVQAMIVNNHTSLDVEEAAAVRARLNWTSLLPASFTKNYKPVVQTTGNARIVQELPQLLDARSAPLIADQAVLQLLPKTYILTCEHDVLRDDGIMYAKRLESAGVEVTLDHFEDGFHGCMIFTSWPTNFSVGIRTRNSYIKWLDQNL

[3] = species: Homo sapiens; experiment: Selectivity for FAAH over KIAA1363
[4] = species: Homo sapiens; experiment: Selectivity for FAAH over TGH
[5] = target: Fatty-acid amide hydrolase 1 (Rattus norvegicus) (UniProt P97612); experiment: Inhibition of rat recombinant FAAH expressed in Escherichia coli by [14C]oleamide breakdown
[6] = target: T3, Fatty-acid amide hydrolase 1 (Homo sapiens, UniProt O00519); experiment: Inhibition of human FAAH expressed in COS7 cells by [14C]oleamide breakdown; type: cell-based, COS-7
T3 sequence (O00519 whole entry): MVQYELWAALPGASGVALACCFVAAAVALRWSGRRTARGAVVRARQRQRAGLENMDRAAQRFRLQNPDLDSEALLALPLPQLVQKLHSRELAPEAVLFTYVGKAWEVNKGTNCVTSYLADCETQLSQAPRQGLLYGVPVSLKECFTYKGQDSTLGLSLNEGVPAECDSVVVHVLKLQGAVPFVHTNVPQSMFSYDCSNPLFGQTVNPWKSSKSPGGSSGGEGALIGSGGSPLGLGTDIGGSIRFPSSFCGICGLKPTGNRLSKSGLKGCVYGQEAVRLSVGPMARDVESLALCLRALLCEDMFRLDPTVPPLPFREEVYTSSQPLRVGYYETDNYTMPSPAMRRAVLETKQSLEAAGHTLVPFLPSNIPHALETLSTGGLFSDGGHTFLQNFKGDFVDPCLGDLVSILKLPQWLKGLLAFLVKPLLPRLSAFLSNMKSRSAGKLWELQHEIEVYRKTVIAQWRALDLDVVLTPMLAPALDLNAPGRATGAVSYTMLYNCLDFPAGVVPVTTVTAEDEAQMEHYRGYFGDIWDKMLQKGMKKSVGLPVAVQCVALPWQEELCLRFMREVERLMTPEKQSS

Row | IC50 [1] [nM] | IC50 [2] [nM] | Ratio IC50 [3] | Ratio IC50 [4] | IC50 [5] [nM] | Ki [5] [nM] | Ki [6] [nM] | Structure (SMILES)
1 | 500 | > 100000 | 59000 | 300 | 1.7 | 0.8 | – | COc1ccnc(-c2cnc(C(=O)CCCCCCc3ccccc3)o2)c1
2 | 2000 | > 100000 | > 100000 | 2000 | 1 | 0.6 | – | Cc1ccnc(-c2cnc(C(=O)CCCCCCc3ccccc3)o2)c1
3 | 3000 | > 100000 | > 2000 | 60 | 50 | 7 | 8 | O=C(O)c1ccc(-c2cnc(C(=O)CCCCCCc3ccccc3)o2)nc1
4 | 400 | > 100000 | > 125000 | 500 | 0.8 | 1.1 | – | N#Cc1ccnc(-c2cnc(C(=O)CCCCCCc3ccccc3)o2)c1

The remaining lines, values behind:

Row | Structure (SMILES) | IC50 [1] [nM] | IC50 [2] [nM] | Ratio IC50 [3] | Ratio IC50 [4] | IC50 [5] [nM] | Ki [5] [nM] | Ki [6] [nM]
5 | NC(=O)c1cccc(-c2cnc(C(=O)CCCCCCc3ccccc3)o2)c1 | > 100000 | > 100000 | > 40 | > 40 | 2700 | 6 | –
6 | COc1ncc(-c2cnc(C(=O)CCCCCCc3ccccc3)o2)c(OC)n1 | 3000 | > 100000 | > 11 | 0.3 | 9000 | 26 | –
7 | O=C(O)c1ccc(-c2cnc(C(=O)CCCCCCc3ccccc3)o2)o1 | > 100000 | > 100000 | > 120 | > 120 | 850 | 15 | –
8 | O=C(CCCCCCc1ccccc1)c1ncc(-c2cc(=O)[nH]c(=O)[nH]2)o1 | 30000 | > 100000 | > 20000 | 6200 | 5 | 12 | –
9 | O=C(CCCCCCc1ccccc1)c1ncc(Br)o1 | 100 | 13000 | 70 | 0.5 | 190 | – | –
10 | O=C(O)c1cccc(-c2cnc(C(=O)CCCCCCc3ccccc3)o2)n1 | > 100000 | > 100000 | > 1000 | > 1000 | 100 | 20 | –
11 | COc1cc(-c2cnc(C(=O)CCCCCCc3ccccc3)o2)nc(OC)n1 | 70 | > 100000 | > 250 | 0.2 | 400 | 5 | –
12 | O=C(CCCCCCc1ccccc1)c1ncc(C(F)(F)F)o1 | 200 | > 100000 | > 1300 | 3 | 77 | – | –
